CC(=CC(C)=Nc1c(C)cccc1C)Nc1c(C)cccc1C
solubility (mole fraction)
Conditions | 273.15 K | 278.15 K | 283.15 K | 288.15 K | 293.15 K | 298.15 K | 303.15 K
in THF | 0.345 | 0.362 | 0.381 | 0.403 | 0.429 | 0.456 | 0.487
in diethyl ether | 0.188 | 0.204 | 0.22 | 0.239 | 0.265 | 0.295 | 0.334
in ethanol | 0.0093 | 0.0099 | 0.0107 | 0.0117 | 0.0129 | 0.0143 | 0.0166
in methanol | 0.0015 | 0.0017 | 0.002 | 0.0024 | 0.0029 | 0.0033 | 0.0041
in n-hexane | 0.167 | 0.194 | 0.223 | 0.253 | 0.285 | 0.316 | 0.347
in toluene | 0.266 | 0.296 | 0.324 | 0.347 | 0.374 | 0.433 | 0.503

Source: BigSolDB 2.1
